Where two headings read alike, the source gives them in different places.
Tested on: MLKL phosphorylation (pMLKL) in HT29-L23 cells
Experiment: MLKL Phosphorylation High-Content Assay
Type: cell-based
Conditions: necroptosis induced with human TNFα, SMAC mimetic and Z-VAD, 6 h, read-out: LE pMLKL HC IC50
Experimental: Following 6 h incubation at 37° C. […] MLKL phosphorylation was detected using anti-MLKL (phospho […]) antibody (Abcam #ab187091) (1:1000 dilution in Blocking Buffer [PBS supplemented with 0.1% BSA]) with ON incubation at 4° C. […] Following another three cycles of washes in PBS, the microplates were sealed, and cellular images were acquired in the Cellomics ArrayScan VTI high-content imager equipped with an X1 camera. […] The image sets were analyzed using the Compartmental Analysis Bioapplication software (Cellomics). The level of MLKL phosphorylation was quantified as […].

Row | SMILES | IC50 [nM] | IC50 (Homo sapiens) [nM]
1 | CC(O)(c1ccc(F)cc1)C(F)(F)CCOc1ccc(F)c(-c2ccn3nc(N)nc3c2)c1F (single isomer, unassigned) [Example 8, 5-(3-(2-amino-[1,2,4]triazolo[1,5-a]pyridin-7-yl)-2,4-difluorophenoxy)-3,3-difluoro-2-(4-fluorophenyl)pentan-2-ol] | 9 | 
2 | Nc1nc2cc(-c3ccc(Cl)c(OCCC(F)C(O)c4ccc(F)cc4)c3F)ccn2n1 (single isomer, unassigned) [Example 99, 4-(3-(2-amino-[1,2,4]triazolo[1,5-a]pyridin-7-yl)-6-chloro-2-fluorophenoxy)-2-fluoro-1-(4-fluorophenyl)butan-1-ol] | 15 | 
3 | Cc1ccc(-c2ccn3nc(N)nc3c2)c(F)c1OCCC(F)C(C)(O)c1ccc(F)cc1 (single isomer, unassigned) [Example 114, 5-(3-(2-amino-[1,2,4]triazolo[1,5-a]pyridin-7-yl)-2-fluoro-6-methylphenoxy)-3-fluoro-2-(4-fluorophenyl)pentan-2-ol] | 0.1 | 
4 | Nc1nc2cc(-c3ccc(F)c(OCCC(F)(F)C(O)c4ccc(F)cc4)c3)ccn2n1 (single isomer, unassigned) [Example 54, 4-(5-(2-amino-[1,2,4]triazolo[1,5-a]pyridin-7-yl)-2-fluorophenoxy)-2,2-difluoro-1-(4-fluorophenyl)butan-1-ol] | 32 | 
5 | Nc1nc2cc(-c3cccc(OCCC(F)(F)C(N)c4ccc(F)cc4)c3F)ccn2n1 (single isomer, unassigned) [Example 62, 7-(3-(4-amino-3,3-difluoro-4-(4-fluorophenyl)butoxy)-2-fluorophenyl)-[1,2,4]triazolo[1,5-a]pyridin-2-amine] | 6 | 
6 | Nc1nc2cc(-c3ccc(C(F)(F)F)c(OCCC(F)C(O)c4ccc(F)cc4)c3F)ccn2n1 (single isomer, unassigned) [Example 110, 4-(3-(2-amino-[1,2,4]triazolo[1,5-a]pyridin-7-yl)-2-fluoro-6-(trifluoromethyl)phenoxy)-2-fluoro-1-(4-fluorophenyl)butan-1-ol] | 360 | 
7 | Nc1nc2cc(-c3ccc(Cl)c(OCCC(F)C(O)c4ccc(F)cc4)c3F)ccn2n1 (single isomer, unassigned) [Example 101, 4-(3-(2-amino-[1,2,4]triazolo[1,5-a]pyridin-7-yl)-6-chloro-2-fluorophenoxy)-2-fluoro-1-(4-fluorophenyl)butan-1-ol] | 30 | 
8 | Cc1ccc(-c2ccn3nc(N)nc3c2)c(F)c1OCCC(F)(F)C(O)c1ccc(F)cc1 (racemic) [Example 66, 4-(3-(2-amino-[1,2,4]triazolo[1,5-a]pyridin-7-yl)-2-fluoro-6-methylphenoxy)-2,2-difluoro-1-(4-fluorophenyl)butan-1-ol] |  | 0.3
9 | CC(CC(F)(F)C(C)(O)c1ccc(F)cc1)Oc1c(F)ccc(-c2ccn3nc(N)nc3c2)c1F (single isomer, unassigned) [Example 127, 5-(3-(2-amino-[1,2,4]triazolo[1,5-a]pyridin-7-yl)-2,6-difluorophenoxy)-3,3-difluoro-2-(4-fluorophenyl)hexan-2-ol] | 1.1 | 
10 | Cc1ccc(-c2ccn3nc(N)nc3c2)c(F)c1OCCC(F)C(F)(F)c1ccc(F)cc1 (single isomer, unassigned) [Example 120, 7-(2-fluoro-4-methyl-3-(3,4,4-trifluoro-4-(4-fluorophenyl)butoxy)phenyl)-[1,2,4]triazolo[1,5-a]pyridin-2-amine] | 9.6 | 
11 | Nc1nc2cc(-c3ccc(F)c(OCCC(F)(F)C(O)c4ccc(F)cc4)c3F)ccn2n1 (single isomer, unassigned) [Example 55, 4-(3-(2-amino-[1,2,4]triazolo[1,5-a]pyridin-7-yl)-2,6-difluorophenoxy)-2,2-difluoro-1-(4-fluorophenyl)butan-1-ol] | 0.3 | 
12 | CC(O)(c1ccc(F)cc1)C(F)CCOc1c(F)ccc(-c2ccn3nc(N)nc3c2)c1F (single isomer, unassigned) [Example 95, 5-(3-(2-amino-[1,2,4]triazolo[1,5-a]pyridin-7-yl)-2,6-difluorophenoxy)-3-fluoro-2-(4-fluorophenyl)pentan-2-ol] | 4 | 
13 | COc1ccc(-c2ccn3nc(N)nc3c2)c(F)c1OCCC(F)(F)C(C)(O)c1ccc(F)cc1 (single isomer, unassigned) [Example 19, 5-(3-(2-amino-[1,2,4]triazolo[1,5-a]pyridin-7-yl)-2-fluoro-6-methoxyphenoxy)-3,3-difluoro-2-(4-fluorophenyl)pentan-2-ol] | 0.4 | 
14 | Nc1nc2cc(-c3ccc(F)c(OCCC(F)C(O)c4ccc(F)cc4)c3F)ccn2n1 (single isomer, unassigned) [Example 102, 4-(3-(2-amino-[1,2,4]triazolo[1,5-a]pyridin-7-yl)-2,6-difluorophenoxy)-2-fluoro-1-(4-fluorophenyl)butan-1-ol] | 3 | 
15 | Nc1nc2cc(-c3ccc(F)c(OCCC(F)C(O)c4ccc(F)cc4)c3F)ccn2n1 (single isomer, unassigned) [Example 105, 4-(3-(2-amino-[1,2,4]triazolo-[1,5-a]pyridin-7-yl)-2,6-difluorophenoxy)-2-fluoro-1-(4-fluorophenyl)butan-1-ol] | 12 | 
16 | CC(O)(c1ccc(F)cc1)C(F)CCOc1c(F)ccc(-c2ccn3nc(N)nc3c2)c1F (single isomer, unassigned) [Example 94, 5-(3-(2-amino-[1,2,4]triazolo[1,5-a]pyridin-7-yl)-2,6-difluorophenoxy)-3-fluoro-2-(4-fluorophenyl)pentan-2-ol] | 97 | 
17 | Cc1ccc(-c2ccn3nc(N)nc3c2)c(F)c1OCCC(F)C(C)(O)c1ccc(F)cc1 (single isomer, unassigned) [Example 115, 5-(3-(2-amino-[1,2,4]triazolo[1,5-a]pyridin-7-yl)-2-fluoro-6-methylphenoxy)-3-fluoro-2-(4-fluorophenyl)pentan-2-ol] | 2.6 | 
18 | CC(O)(c1ccccc1)C(F)(F)CCOc1c(F)ccc(-c2ccn3nc(N)nc3c2F)c1F (single isomer, unassigned) [Example 37, 5-(3-(2-amino-8-fluoro-[1,2,4]triazolo[1,5-a]pyridin-7-yl)-2,6-difluorophenoxy)-3,3-difluoro-2-phenylpentan-2-ol] | 110 | 
19 | CC(O)(c1ccccc1)C(F)(F)CCOc1cccc(-c2ccn3nc(N)nc3c2)c1F (single isomer, unassigned) [Example 67, 5-(3-(2-amino-[1,2,4]triazolo[1,5-a]pyridin-7-yl)-2-fluorophenoxy)-3,3-difluoro-2-phenylpentan-2-ol] | 4 | 
20 | CC(O)(c1ccc(Cl)cc1)C(F)(F)CCOc1cccc(-c2ccn3nc(N)nc3c2)c1F (single isomer, unassigned) [Example 47, 5-(3-(2-amino-[1,2,4]triazolo[1,5-a]pyridin-7-yl)-2-fluorophenoxy)-2-(4-chlorophenyl)-3,3-difluoropentan-2-ol] | 23 | 
21 | Cc1ccc(-c2ccn3nc(N)nc3c2)c(F)c1OCCC(F)C(O)c1ccc(F)cc1 (single isomer, unassigned) [Example 106, 4-(3-(2-amino-[1,2,4]triazolo[1,5-a]pyridin-7-yl)-2-fluoro-6-methylphenoxy)-2-fluoro-1-(4-fluorophenyl)butan-1-ol] | 3 | 
22 | CC(O)(c1ccc(F)cc1)C(F)(F)CCOc1cc(-c2ccn3nc(N)nc3c2)ccc1F (single isomer, unassigned) [Example 57, 5-(5-(2-amino-[1,2,4]triazolo[1,5-a]pyridin-7-yl)-2-fluorophenoxy)-3,3-difluoro-2-(4-fluorophenyl)pentan-2-ol] | 130 | 
23 | CC(O)(c1ccc(Cl)cc1)C(F)(F)CCOc1cccc(-c2ccn3nc(N)nc3c2)c1F (single isomer, unassigned) [Example 48, 5-(3-(2-amino-[1,2,4]triazolo[1,5-a]pyridin-7-yl)-2-fluorophenoxy)-2-(4-chlorophenyl)-3,3-difluoropentan-2-ol] | 0.1 | 
24 | Nc1nc2cc(-c3cccc(OCCC(F)(F)C(O)c4ccccc4)c3F)ccn2n1 (racemic) [Example 69, 4-(3-(2-amino-[1,2,4]triazolo[1,5-a]pyridin-7-yl)-2-fluorophenoxy)-2,2-difluoro-1-phenylbutan-1-ol] |  | 3
25 | CC(O)(c1ccc(F)cc1)C(F)(F)CCOc1cccc(-c2ccn3nc(N)nc3c2)c1C(F)F (single isomer, unassigned) [Example 23, 5-(3-(2-amino-[1,2,4]triazolo[1,5-a]pyridin-7-yl)-2-(difluoromethyl)phenoxy)-3,3-difluoro-2-(4-fluorophenyl)pentan-2-ol] |  | 6000
26 | CC(O)(c1ccccc1)C(F)(F)CCOc1c(F)ccc(-c2ccn3nc(N)nc3c2)c1F (single isomer, unassigned) [Example 39, 5-(3-(2-amino-[1,2,4]triazolo[1,5-a]pyridin-7-yl)-2,6-difluorophenoxy)-3,3-difluoro-2-phenylpentan-2-ol] | 130 | 
27 | CC(O)(c1ccc(F)cc1)C(F)(F)CCOc1c(C(F)F)ccc(-c2ccn3nc(N)nc3c2)c1F (single isomer, unassigned) [Example 26, 5-(3-(2-amino-[1,2,4]triazolo[1,5-a]pyridin-7-yl)-6-(difluoromethyl)-2-fluorophenoxy)-3,3-difluoro-2-(4-fluorophenyl)pentan-2-ol] | 0.3 | 
28 | CC(O)(c1ccc(F)cc1)C(F)(F)CCOc1cnc(Cl)c(-c2ccn3nc(N)nc3c2)n1 (racemic) [Example 81, 5-((6-(2-amino-[1,2,4]triazolo[1,5-a]pyridin-7-yl)-5-chloropyrazin-2-yl)oxy)-3,3-difluoro-2-(4-fluorophenyl)pentan-2-ol] |  | 0.2
